IC50 data for 25 compounds are collected here from patent US20170273985A1, “TRICYCLIC DERIVATIVE” (Sunovion Pharmaceuticals Inc., priority 2014, published 2017).

This assay addresses PDE1B (Homo sapiens, UniProt Q01064). Briefly: In vitro HTRF PDE1 inhibition assay (PDE1B). The conditions noted are these: Table 22. The format is biochemical. An excerpt:
An exemplary procedure for the in vitro Homogenous Time Resolved Fluorescence assay, which can be used to determine the inhibitory action of compounds of the invention toward PDE1 or its isoforms, follows. The HTRF PDE1 assay utilized the HTRF (Homogenous Time Resolved Fluorescence) technology, which is based on the competition between unlabeled cyclic nucleotide and cyclic nucleotide labeled with XL665 for the binding to cyclic nucleotide-specific antibody labeled with cryptate. The HTRF signal is thus inversely proportional to the concentration of cyclic nucleotide being measured. Since phosphodiesterases break down cyclic nucleotides the HTRF signal was used to determine PDE activity. The Cisbio cGMP HTRF assay kit (Cat no: 62GM2PEC) was utilized. Cyclic GMP was diluted to 200 nM in HTRF assay buffer (1 mM CaCl2, 10 mM MgCl2, 10 mM Tris-HCl, 0.1% BSA, pH 7.4). 10 μl of compound or DMSO was diluted in 200 nM cyclic GMP solution and added to wells of a 96 well white plate to give 100 nM cyclic GMP in 1% DMSO final concentration. PDE (1A3, 1B or IC) was diluted to 2× working concentration in HTRF assay buffer with 2 μg/ml calmodulin, and 10 μl was added to initiate the reaction. The plate was then incubated for 45 minutes at 37° C. d2-Labelled cyclic GMP and anti-cGMP cryptate were diluted in 50 mM phosphate buffer, 0.8 M KF, 1% Triton X100, 0.2% BSA, pH 7.0. Following incubation 10 μl d2-cGMP, then 10 μl anti cGMP cryptate were added to each well and the plate was incubated for 45 minutes at room temperature. The plate was then read on Perkin Elmer Victor at 2 different FRET readings ex/emm 340 nm/665 nm and 340 nm/615 nm. Compounds having an IC50 of <1 μM, are denoted as +++. Compounds having an IC50 of 1−10 μM, are denoted as ++. Compounds having an IC50 of 10-100 μM, are denoted as +.
(TR-FRET usually uses a lanthanide donor and a delayed reading to cut background.)
One may read the IC50 as the concentration that gives 50% inhibition. Low values mean higher potency, high ones lower potency. For the compound `CC(C)c1ncc2c(=O)n3c(nn12)N(C)[C@@H](c1ccc(Cl)cn1)C3` [Example 84, (R)-2-(5-Chloropyridin-2-yl)-8-isopropyl-1-methyl-2,3-dihydrodiimidazo[2,1-c:1′,5′-f][1,2,4]triazin-5(1H)-one], the half-maximal inhibitory concentration (IC50) is < 1 µM.

For the compound `CC(C)c1ncc2c(=O)n3c(nn12)N(C)[C@H](c1ccc(Cl)cn1)C3` [Example 85, (S)-2-(5-Chloropyridin-2-yl)-8-isopropyl-1-methyl-2,3-dihydrodiimidazo[2,1-c:1′,5′-f][1,2,4]triazin-5(1H)-one], the IC50 was < 1 µM.

With `COc1ccc(C2Cn3c(nn4c(C5CCOCC5)ncc4c3=O)N2C)cc1` (stereo not shown) [Example 86], the IC50 was < 1 µM.

`COc1ccc(C2Cn3c(nn4c(C5CCOCC5)ncc4c3=O)N2C)cc1` (stereo not shown) [Example 87]: the IC50 was 1 to 10 µM.

With `CCc1ccc(C2Cn3c(nn4c(C5CCOCC5)ncc4c3=O)N2CC)cn1` (stereo not shown) [Example 88], the IC50 was < 1 µM.

With `CCc1ccc([C@@H]2Cn3c(nn4c(C5CCOCC5)ncc4c3=O)N2CC)cn1` [Example 89], the half-maximal inhibitory concentration (IC50) is 1 to 10 µM.

Turning to `CCCN1c2nn3c(C4CCOCC4)ncc3c(=O)n2C[C@@H]1c1ccc(CC)nc1` [Example 90], the concentration for half-maximal inhibition (IC50) is < 1 µM.

The compound `CCCN1c2nn3c(C4CCOCC4)ncc3c(=O)n2C[C@H]1c1ccc(CC)nc1` [Example 91] gave an IC50 of 1 to 10 µM.

`CCc1ccc([C@H]2Cn3c(nn4c(C5CCOCC5)ncc4c3=O)N2CC(C)C)cn1` [Example 92] had an IC50 of 1 to 10 µM.

For the compound `CCc1ccc([C@@H]2Cn3c(nn4c(C5CCOCC5)ncc4c3=O)N2CC(C)C)cn1` [Example 93], the IC50 is 10 to 100 µM.

On to `CCc1ccc(C2Cn3c(nn4c(C(C)C)ncc4c3=O)N2CC)cn1` (stereo not shown) [Example 95], for which the IC50 was 1 to 10 µM.

For `CCCN1c2nn3c(C(C)C)ncc3c(=O)n2C[C@@H]1c1ccc(CC)nc1` [Example 96], the IC50 is 1 to 10 µM.

In turn, `CCCN1c2nn3c(C(C)C)ncc3c(=O)n2CC1c1ccc(CC)nc1` (stereo not shown) [Example 97] registered an IC50 of 1 to 10 µM.

Regarding `CCc1ccc(C2Cn3c(nn4c(C(C)C)ncc4c3=O)N2CC(C)C)cn1` (stereo not shown) [Example 98], the IC50 was in the range of 1 to 10 µM.

`CCc1ccc(C2Cn3c(nn4c(C(C)C)ncc4c3=O)N2CC(C)C)cn1` (stereo not shown) [Example 99]: the IC50 fell in the range of 1 to 10 µM.

With `CC(C)c1ncc2c(=O)n3c(nn12)N(CCCCO)CC3` [Example 100, 1-(4-Hydroxybutyl)-8-isopropyl-2,3-dihydro-1H,5H-diimidazo[2,1-c:5′,1′-f][1,2,4]triazin-5-one], the IC50 is < 1 µM.

Turning to `CC(C)c1ncc2c(=O)n3c(nn12)N(CCCCCO)CCC3` [Example 101, 1-(5-Hydroxypentyl)-9-isopropyl-1,2,3,4-tetrahydro-6H-imidazo[5,1-f]pyrimido[2,1-c][1,2,4]triazin-6-one], the IC50 is < 1 µM.

As for `CC(C)c1ncc2c(=O)n3c(nn12)N(CCCCCO)CC3` [Example 102], the half-maximal inhibitory concentration (IC50) was < 1 µM.

Consider `CC(C)c1ncc2c(=O)n3c(nn12)N(CCCCCCO)CC3` [Example 103], for which the IC50 was < 1 µM.

Turning to `CC(C)c1ncc2c(=O)n3c(nn12)N(CCOCCO)CC3` [Example 104], the concentration for half-maximal inhibition (IC50) was < 1 µM.

With `CC(C)c1ncc2c(=O)n3c(nn12)N(CCCCO)CCC3` [Example 105], the IC50 is < 1 µM.

`CC(C)c1ncc2c(=O)n3c(nn12)N(CCOCCO)CCC3` [Example 107] gave an IC50 of 1 to 10 µM.

Consider `O=c1c2cnc(C3CCOCC3)n2nc2n1CCN2CCCCCO` [Example 108], for which the IC50 was < 1 µM.

Take `O=c1c2cnc(C3CCOCC3)n2nc2n1CCCN2CCCCCO` [Example 109]: the IC50 was < 1 µM.

For the compound `CC(C)c1ncc2c(=O)n3c(nn12)N(CCCC(O)CO)CC3` (stereo not shown) [Example 110, 1-(4,5-Dihydroxypentyl)-8-isopropyl-2,3-dihydro-1H,5H-diimidazo[2,1-c:5′,1′-f][1,2,4]triazin-5-one], the 50% inhibitory concentration (IC50) is < 1 µM.
